Measurements from PMC12446476 (Nature Communications, 2025).
≈ marks a conversion by molar mass, not a printed value. Where “and” joins values, the source holds several entries; their conditions need not be identical. Equal values may be shown once. Read-outs that look alike come from different tables or passages of the source. Each block holds one compound with its values, some of them ahead of it.

Tests used:
human lymphocytes = test: In vitro micronucleus test; assay type: cell-based; conditions: for Micronucleated cells: 1000 scored cells
S. aureus ATCC 29213 = test: S. aureus neutropenic murine thigh infection model; assay type: in vivo, mouse; conditions: ICR mice, 100 mg/kg PO, TID, 48h; 100 mg/kg
Method: The S. aureus neutropenic murine thigh infection model was performed in accordance with the Guide for Care and Use of Laboratory Animals[75]. Animal rooms were maintained at a temperature range of 20–24 °C and humidity between 30% and 70%, with 12 h light/dark cycles. Female ICR mice (BioLASCO Taiwan Co., Ltd.) were rendered neutropenic via IP injection of cyclophosphamide four days before infection (150 mg/kg) and again one day before infection (100 mg/kg). Animals were anaesthetised with isoflurane (3–5%), then inoculated intramuscularly with S. aureus ATCC 29213 (~1 × 10^5 CFU/mouse). […] Animals were sacrificed via CO2 asphyxiation at either 2 h (baseline), 26 and/or 50 h post-infection. Thigh tissues were harvested and homogenised in 3 mL sterile PBS (pH 7.4). Bacterial burdens were determined by performing 10-fold serial dilutions and plating on nutrient agar plates.

[1] = target: T1, recombinant NgFabI protein (Neisseria gonorrhoeae, UniProt A0ACH0F547); test: biochemical
Method: FabI activity was monitored by measuring NADH consumption. […] To initiate reactions, 50 µM NADH was added, and absorbance was monitored at 340 nm every 12 s for a total of 40 min using a Spectramax Plus 384 plate reader (Molecular Devices) at a controlled temperature of 30 °C. Data were analysed using the XLfit Microsoft Excel plugin (version 5.5). IC50 values were determined using a logistic sigmoid curve-fitting of the inhibitor dose response curves.

N. gonorrhoeae [2] = test: MIC determination, agar dilution (CLSI); assay type: cell-based, Neisseria gonorrhoeae; conditions: for MIC: Neisseria gonorrhoeae, read-out: Minimum inhibitory concentration; for NgMIC50: screening panel of 14 N. gonorrhoeae isolates
Source text: The 2024 WHO N. gonorrhoeae reference strains were used for quality control. Only whole MIC doubling dilutions are reported. Clinical breakpoints or the epidemiological cutoff (ECOFF, to indicate azithromycin resistance) from EUCAST (v14.0, https://www.eucast.org/clinical_breakpoints) were used to classify isolates as antimicrobial susceptible or resistant. […] Two times the standard inoculum defined by CLSI was used to establish consistent growth in untreated control samples for some strains. In vitro time-kill assays were performed according to CLSI guidelines[65] using Columbia Broth (BD Difco) supplemented with 1% IsoVitaleX Enrichment (BD). Viable bacterial counts were generated by plating 10-fold serially diluted samples on GC agar plates containing 1% IsoVitaleX Enrichment (BD).

N. gonorrhoeae [3] = test: In vitro selection of mutants with reduced susceptibility; assay type: cell-based, Neisseria gonorrhoeae
Method: N. gonorrhoeae strains were grown overnight on chocolate agar plates, as described above. […] Plates were incubated at 35 ± 2 °C in a humid 5% CO2–enriched atmosphere for 48–72 h.

[4] = target: T1, recombinant NgFabI protein; conditions: cited from earlier work
E. coli WP2 uvrA = test: Ames assay, E. coli strain; assay type: cell-based; conditions: without S9, positive control 500 µg/plate
Method: Ames assays were performed using four strains of Salmonella typhimurium (TA1535, TA1537, TA98 and TA100) and a single strain of E. coli (WRP2 uvrA) in the presence and absence of S9 tissue homogenate. Dose levels (µg/plate) up to 4000 were assessed for WP2 uvrA and TA98, 500 for TA1535, 250 for TA1537 and 62.5 for TA100.

[5] = test system: mouse lymphoma L5178Y TK+/− cells; assay type: cell-based; conditions: positive control, 10 µg/mL
[6] = HepG2 cell viability (CellTiter-Glo); assay type: cell-based; conditions: human, HepG2 cells, read-out: Cell viability, Mean (n=3)
Method: (§1) HepG2 cells (HB-8065; ATCC) cultured in DMEM (Gibco) with 5% fetal bovine serum (heat-inactivated, Sigma-Aldrich) and 1% penicillin-streptomycin (ThermoFisher), were seeded in 96-well plates (3.0 × 10^4 per well) and incubated at 37 °C and 5% CO2. […] Each treatment was assessed in triplicate. Cytotoxicity was determined using CytoTox-ONE^TM Homogenous Membrane Integrity Assay kits (Promega), and cell viability was determined using CellTiter-Glo® Luminescent Cell Viability Assay kits (Promega), each according to the manufacturer’s specifications.

HepG2 cells = test: HepG2 cytotoxicity (CytoTox-ONE membrane integrity); assay type: cell-based, human; conditions: 24 h
Method: as §1

[7] = Suppl. Table 4, 31 h treatment, without S9, 31 h sampling, 0.08 µg/mL
[8] = Suppl. Table 5, 31 h treatment, without S9, 31 h sampling, 0.04 µg/mL
[9] = screening panel N. gonorrhoeae isolate A
[10] = screening panel N. gonorrhoeae isolate B
[11] = screening panel N. gonorrhoeae isolate C
[12] = screening panel N. gonorrhoeae isolate D
[13] = screening panel N. gonorrhoeae isolate E
[14] = screening panel N. gonorrhoeae isolate F
[15] = screening panel N. gonorrhoeae isolate G
[16] = screening panel N. gonorrhoeae isolate H
[17] = screening panel N. gonorrhoeae isolate I
[18] = screening panel N. gonorrhoeae isolate J
[19] = screening panel N. gonorrhoeae isolate K
[20] = screening panel N. gonorrhoeae isolate L
[21] = screening panel N. gonorrhoeae isolate M
[22] = screening panel N. gonorrhoeae isolate N
[23] = Suppl. Table 4, 3 h treatment, with S9, 32 h sampling, 15 µg/mL
[24] = Suppl. Table 5, 3 h treatment, with S9, 32.5 h sampling, 20 µg/mL

T1 sequence (A0ACH0F547 entry or part of it): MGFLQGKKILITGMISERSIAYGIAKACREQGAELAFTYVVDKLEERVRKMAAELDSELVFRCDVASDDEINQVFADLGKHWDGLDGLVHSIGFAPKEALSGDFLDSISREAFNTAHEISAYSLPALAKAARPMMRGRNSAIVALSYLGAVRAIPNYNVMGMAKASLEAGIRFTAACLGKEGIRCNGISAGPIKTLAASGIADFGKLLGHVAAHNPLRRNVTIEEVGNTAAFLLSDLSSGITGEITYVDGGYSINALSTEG

SMILES: COc1cc2c(c(OC)c1OC)-c1ccc(OC)c(=O)cc1[C@@H](NC(C)=O)CC2 [Colchicine]
Incidence of micronucleated cells (human lymphocytes; -S9, treatment 31 h, harvest 31 h, positive control 0.04 µg/mL (Debio 1453 study)): 1.85% | Incidence of micronucleated cells (human lymphocytes; -S9, treatment 31 h, harvest 31 h, positive control 0.08 µg/mL (Debio 1453P study)): 3.35% | Micronucleated cell percentage (human lymphocytes; [7]): 3.35% | Micronucleated cells (human lymphocytes; [7]): 33 and 34 | Micronucleated cell percentage (human lymphocytes; [8]): 1.85% | Micronucleated cells (human lymphocytes; [8]): 19 and 18

SMILES: CC(=O)NC[C@H]1CN(c2ccc(N3CCOCC3)c(F)c2)C(=O)O1 [Linezolid, reference compound]
CFU per thigh (S. aureus ATCC 29213): 930 CFU per thigh and 510 CFU per thigh and 570 CFU per thigh and 750 CFU per thigh and 720 CFU per thigh | Log10(CFU/Thigh) (S. aureus ATCC 29213): 2.968 Log10(CFU/Thigh) and 2.708 Log10(CFU/Thigh) and 2.756 Log10(CFU/Thigh) and 2.875 Log10(CFU/Thigh) and 2.857 Log10(CFU/Thigh)

IC50 [1]: 6 nM | MIC (N. gonorrhoeae [2]; [9]): 0.25 µg/mL (≈ 0.64 µM) | MIC (N. gonorrhoeae [2]; [10]): 0.125 µg/mL (≈ 0.32 µM) | MIC (N. gonorrhoeae [2]; [11]): 0.125 µg/mL (≈ 0.32 µM) | MIC (N. gonorrhoeae [2]; [12]): 0.25 µg/mL (≈ 0.64 µM) | MIC (N. gonorrhoeae [2]; [13]): 0.125 µg/mL (≈ 0.32 µM) | MIC (N. gonorrhoeae [2]; [14]): 0.25 µg/mL (≈ 0.64 µM) | MIC (N. gonorrhoeae [2]; [15]): 0.5 µg/mL (≈ 1.28 µM) | MIC (N. gonorrhoeae [2]; [16]): 0.25 µg/mL (≈ 0.64 µM) | MIC (N. gonorrhoeae [2]; [17]): 0.125 µg/mL (≈ 0.32 µM) | MIC (N. gonorrhoeae [2]; [18]): 0.25 µg/mL (≈ 0.64 µM) | MIC (N. gonorrhoeae [2]; [19]): 0.5 µg/mL (≈ 1.28 µM) | MIC (N. gonorrhoeae [2]; [20]): 0.25 µg/mL (≈ 0.64 µM) | MIC (N. gonorrhoeae [2]; [21]): 0.125 µg/mL (≈ 0.32 µM) | MIC (N. gonorrhoeae [2]; [22]): 0.125 µg/mL (≈ 0.32 µM)
SMILES: Cc1c(CN(C)C(=O)/C=C/c2cnc3c(c2)NCCC(=O)N3)oc2ccccc12 [Compound 1]
NgMIC50 (N. gonorrhoeae [2]): 0.25 µg/mL

SMILES: O=C(O)c1cn(C2CC2)c2cc(N3CCNCC3)c(F)cc2c1=O [Ciprofloxacin, reference compound]
Mutants (colonies) (N. gonorrhoeae [3]; 6926, 4x MIC): 4 | Mutants (colonies) (N. gonorrhoeae [3]; 6926, 8x MIC): 5 | Mutants (colonies) (N. gonorrhoeae [3]; 6926, 16x MIC): 1 | Mutants (colonies) (N. gonorrhoeae [3]; ATCC 700825, 4x MIC): 1 | Mutants (colonies) (N. gonorrhoeae [3]; ATCC 700825, 8x MIC): 0 | Mutants (colonies) (N. gonorrhoeae [3]; ATCC 700825, 16x MIC): 0

SMILES: Cc1c(CN(C)C(=O)/C=C/c2cnc3c(c2)N[C@@H](C)CC(=O)N3)oc2ccccc12 [Compound 6]
IC50 [1]: 14 nM | fold less potent than its enantiomer compound 2 (NgFabI IC50) [1]: 5 fold | Minimum inhibitory concentration (N. gonorrhoeae [2]; [9]): 1 µg/mL (≈ 2.47 µM) | Minimum inhibitory concentration (N. gonorrhoeae [2]; [10]): 0.5 µg/mL (≈ 1.24 µM) | Minimum inhibitory concentration (N. gonorrhoeae [2]; [11]): 0.5 µg/mL (≈ 1.24 µM) | Minimum inhibitory concentration (N. gonorrhoeae [2]; [12]): 0.5 µg/mL (≈ 1.24 µM) | Minimum inhibitory concentration (N. gonorrhoeae [2]; [13]): 0.5 µg/mL (≈ 1.24 µM) | Minimum inhibitory concentration (N. gonorrhoeae [2]; [14]): 1 µg/mL (≈ 2.47 µM) | Minimum inhibitory concentration (N. gonorrhoeae [2]; [15]): 1 µg/mL (≈ 2.47 µM) | Minimum inhibitory concentration (N. gonorrhoeae [2]; [16]): 1 µg/mL (≈ 2.47 µM) | Minimum inhibitory concentration (N. gonorrhoeae [2]; [17]): 0.5 µg/mL (≈ 1.24 µM) | Minimum inhibitory concentration (N. gonorrhoeae [2]; [18]): 1 µg/mL (≈ 2.47 µM) | Minimum inhibitory concentration (N. gonorrhoeae [2]; [19]): 2 µg/mL (≈ 4.94 µM) | Minimum inhibitory concentration (N. gonorrhoeae [2]; [20]): 0.5 µg/mL (≈ 1.24 µM) | Minimum inhibitory concentration (N. gonorrhoeae [2]; [21]): 0.5 µg/mL (≈ 1.24 µM) | Minimum inhibitory concentration (N. gonorrhoeae [2]; [22]): 0.5 µg/mL (≈ 1.24 µM)

IC50 [1]: 2.4 nM | MIC (N. gonorrhoeae [2]; [9]): 0.25 µg/mL (≈ 0.618 µM) | MIC (N. gonorrhoeae [2]; [10]): 0.125 µg/mL (≈ 0.309 µM) | MIC (N. gonorrhoeae [2]; [11]): 0.125 µg/mL (≈ 0.309 µM) | MIC (N. gonorrhoeae [2]; [12]): 0.125 µg/mL (≈ 0.309 µM) | MIC (N. gonorrhoeae [2]; [13]): 0.06 µg/mL (≈ 0.148 µM) | MIC (N. gonorrhoeae [2]; [14]): 0.25 µg/mL (≈ 0.618 µM) | MIC (N. gonorrhoeae [2]; [15]): 0.25 µg/mL (≈ 0.618 µM) | MIC (N. gonorrhoeae [2]; [16]): 0.125 µg/mL (≈ 0.309 µM) | MIC (N. gonorrhoeae [2]; [17]): 0.125 µg/mL (≈ 0.309 µM) | MIC (N. gonorrhoeae [2]; [18]): 0.125 µg/mL (≈ 0.309 µM) | MIC (N. gonorrhoeae [2]; [19]): 0.5 µg/mL (≈ 1.24 µM) | MIC (N. gonorrhoeae [2]; [20]): 0.125 µg/mL (≈ 0.309 µM) | MIC (N. gonorrhoeae [2]; [21]): 0.125 µg/mL (≈ 0.309 µM) | MIC (N. gonorrhoeae [2]; [22]): 0.125 µg/mL (≈ 0.309 µM)
SMILES: Cc1c(CN(C)C(=O)/C=C/c2cnc3c(c2)N[C@H](C)CC(=O)N3)oc2ccccc12 [Compound 2]
NgMIC50 (N. gonorrhoeae [2]): 0.125 µg/mL

SMILES: Cc1c(CN(C)C(=O)/C=C/c2cnc3c(c2)CCC(=O)N3)oc2ccccc12 [Debio 1452, (E)-N-methyl-N-((3-methylbenzofuran-2-yl)methyl)-3-(7-oxo-5,6,7,8-tetrahydro-1,8-naphthyridin-3-yl)acrylamide, reference compound]
MIC (N. gonorrhoeae [2]; [13]): 0.5 µg/mL (≈ 1.33 µM) | MIC (N. gonorrhoeae [2]; [14]): 2 µg/mL (≈ 5.33 µM) | MIC (N. gonorrhoeae [2]; [15]): 4 µg/mL (≈ 10.7 µM) | MIC (N. gonorrhoeae [2]; [16]): 2 µg/mL (≈ 5.33 µM) | MIC (N. gonorrhoeae [2]; [17]): 1 µg/mL (≈ 2.66 µM) | MIC (N. gonorrhoeae [2]; [18]): 2 µg/mL (≈ 5.33 µM) | MIC (N. gonorrhoeae [2]; [19]): 4 µg/mL (≈ 10.7 µM) | IC50 ([4]; deduced from Figure 3A of reference 15): ~100 nM | Ki ([4]; seen by the reviewer in the cited work, read-out: Kiapp): 5 nM

SMILES: COS(C)(=O)=O [MMS, Methyl methanesulfonate]
Ames bacterial mutation assessment, Mean (E. coli WP2 uvrA): 168 | Colony count (E. coli WP2 uvrA): 174 and 161 and 169 | Induced mutant frequency [5]: 421.6 | Mutant frequency per 10^6 cells [5]: 490.9

SMILES: O=P1(N(CCCl)CCCl)NCCCO1 (stereo not drawn) [Cyclophosphamide]
Incidence of micronucleated cells (human lymphocytes; +S9, treatment 3 h, harvest 32 h, positive control 15 µg/mL (Debio 1453P study)): 3.00% | Incidence of micronucleated cells (human lymphocytes; +S9, treatment 3 h, harvest 32.5 h, positive control 20 µg/mL (Debio 1453 study)): 7.15% | Micronucleated cell percentage (human lymphocytes; [23]): 3.00% | Micronucleated cells (human lymphocytes; [23]): 21 and 39 | Micronucleated cell percentage (human lymphocytes; [24]): 7.15% | Micronucleated cells (human lymphocytes; [24]): 78 and 65

SMILES: CN(C)CCCN1c2ccccc2Sc2ccc(Cl)cc21 [chlorpromazine]
viability at 24 h, 5 µM ([6]; 5 µM): 101% | viability at 24 h, 50 µM ([6]; 50 µM): 1% | viability at 24 h, 250 µM ([6]; 250 µM): 0% | Cytotoxicity, Mean (n=3) (HepG2 cells; 5 µM): 5% | Cytotoxicity, Mean (n=3) (HepG2 cells; 50 µM): 33% | Cytotoxicity, Mean (n=3) (HepG2 cells; 250 µM): 29%
